Structures are written as SMILES.

The target in this assay is T1, His tagged full-length PTP1B protein (Homo sapiens, UniProt P18031).
T1 construct: made in house
T1 sequence (P18031 with tags, fused parts or gaps): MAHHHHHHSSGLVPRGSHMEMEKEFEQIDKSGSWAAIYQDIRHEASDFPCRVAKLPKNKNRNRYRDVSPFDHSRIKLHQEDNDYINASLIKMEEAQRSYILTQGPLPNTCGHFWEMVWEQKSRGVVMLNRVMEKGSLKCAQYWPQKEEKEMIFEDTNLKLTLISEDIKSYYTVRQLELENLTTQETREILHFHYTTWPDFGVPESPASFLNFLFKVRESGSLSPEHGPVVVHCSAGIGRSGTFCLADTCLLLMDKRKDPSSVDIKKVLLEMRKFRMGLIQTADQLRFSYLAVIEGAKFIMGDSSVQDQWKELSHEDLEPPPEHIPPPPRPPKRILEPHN
Put plainly: Mobility Shift Assay (MSA) used to determine potency of PTP1B inhibitors. It is filed as biochemical. The conditions noted are these: Table 2. As to the method:
The enzymatic assay used to determine activity is a mobility shift assay using a LabChip EZ Reader by Caliper Life Sciences. The enzymatic reaction was carried out in assay buffer (50 mM HEPES pH 7.5, 1 mM EGTA, 10 mM EDTA, 0.01% Tween® 20, and 2 mM DTT). […] The enzyme (at 0.5 nM) was incubated with compound for 10 minutes at room temperature. […] The % inhibition was then used to calculate the IC50 values.
Regarding `N#CCCCNc1ccc2cc(O)c(N3CC(=O)NS3(=O)=O)c(F)c2c1` [Compound 174, 4-{[8-fluoro-6-hydroxy-7-(1,1,4-trioxo-1λ^6,2,5-thiadiazolidin-2-yl)naphthalen-2-yl]amino}butanenitrile], the IC50 (as a rule, the midpoint of a concentration-inhibition curve) was over 100 nM. In the case of `N#CCCCCOc1ccc2cc(O)c(N3CC(=O)NS3(=O)=O)c(F)c2c1` [Compound 111, 5-{[8-fluoro-6-hydroxy-7-(1,1,4-trioxo-1λ^6,2,5-thiadiazolidin-2-yl)naphthalen-2-yl]oxy}pentanenitrile], the IC50 was in the range of 1 to 10 nM. Under `COc1ccc2cc(O)c(N3CC(=O)NS3(=O)=O)c(F)c2c1F` [Compound 205, 5-(1,8-difluoro-3-hydroxy-7-methoxynaphthalen-2-yl)-1λ^6,2,5-thiadiazolidine-1,1,3-trione] stands 10 to 100 nM; under `COCCOc1ccc2cc(O)c(N3CC(=O)NS3(=O)=O)c(F)c2c1` [Compound 119, 5-[1-fluoro-3-hydroxy-7-(2-methoxyethoxy)naphthalen-2-yl]-1λ^6,2,5-thiadiazolidine-1,1,3-trione], 1 to 10 nM; under `O=C1CN(c2c(O)cc3ccc(CO)cc3c2F)S(=O)(=O)N1` [Compound 185, 5-[1-fluoro-3-hydroxy-7-(hydroxymethyl)naphthalen-2-yl]-1λ^6,2,5-thiadiazolidine-1,1,3-trione], 10 to 100 nM.

With `O=C1CN(c2c(O)cc3ccc(C4CCNCC4)cc3c2F)S(=O)(=O)N1` [Compound 299, 5-[1-fluoro-3-hydroxy-7-(piperidin-4-yl)naphthalen-2-yl]-1λ^6,2,5-thiadiazolidine-1,1,3-trione], the IC50 lay within 10 to 100 nM. The figure for `O=C1CN(c2c(O)cc3ccc(CC4CNC4)cc3c2F)S(=O)(=O)N1` [Compound 267, 5-{7-[(azetidin-3-yl)methyl]-1-fluoro-3-hydroxynaphthalen-2-yl}-1λ^6,2,5-thiadiazolidine-1,1,3-trione] is 10 to 100 nM.

Regarding `CC(C)CNc1ccc2cc(O)c(N3CC(=O)NS3(=O)=O)c(F)c2c1` [Compound 201, 5-{1-fluoro-3-hydroxy-7-[(2-methylpropyl)amino]naphthalen-2-yl}-1λ^6,2,5-thiadiazolidine-1,1,3-trione], the IC50 lay in the range of 1 to 10 nM.

Take `CC(C)(C)CCNc1ccc2cc(O)c(N3CC(=O)NS3(=O)=O)c(F)c2c1` [Compound 116, 5-{7-[(3,3-dimethylbutyl)amino]-1-fluoro-3-hydroxynaphthalen-2-yl}-1λ^6,2,5-thiadiazolidine-1,1,3-trione]: the IC50 lay in the range of 10 to 100 nM.

In the case of `C[C@H](O)CCOc1ccc2cc(O)c(N3CC(=O)NS3(=O)=O)c(F)c2c1` [Compound 147, 5-{1-fluoro-3-hydroxy-7-[(3S)-3-hydroxybutoxy]naphthalen-2-yl}-1λ^6,2,5-thiadiazolidine-1,1,3-trione], the IC50 was 1 to 10 nM. The figure for `CC(C)(N)CCOc1ccc2cc(O)c(N3CC(=O)NS3(=O)=O)c(F)c2c1` [Compound 165, 5-[7-(3-amino-3-methylbutoxy)-1-fluoro-3-hydroxynaphthalen-2-yl]-1λ^6,2,5-thiadiazolidine-1,1,3-trione] is 1 to 10 nM; for `COc1ccc2c(Br)c(O)c(N3CC(=O)NS3(=O)=O)c(F)c2c1` [Compound 243, 5-(4-bromo-1-fluoro-3-hydroxy-7-methoxynaphthalen-2-yl)-1λ^6,2,5-thiadiazolidine-1,1,3-trione] it is over 100 nM; for `CNc1ccc2cc(O)c(N3CC(=O)NS3(=O)=O)c(F)c2c1` [Compound 107, 5-[1-fluoro-3-hydroxy-7-(methylamino)naphthalen-2-yl]-1λ^6,2,5-thiadiazolidine-1,1,3-trione] it is over 100 nM. The figure for `Nc1ccccc1CS(=O)(=O)N1CC=C(c2ccc3cc(O)c(N4CC(=O)NS4(=O)=O)c(F)c3c2)C1` [Compound 195, 5-(7-{1-[(2-aminophenyl)methanesulfonyl]-2,5-dihydro-1H-pyrrol-3-yl}-1-fluoro-3-hydroxynaphthalen-2-yl)-1λ^6,2,5-thiadiazolidine-1,1,3-trione] is 1 to 10 nM; for `CCP(=O)(CC)CCCOc1ccc2cc(O)c(N3CC(=O)NS3(=O)=O)c(F)c2c1` [Compound 146, 5-{7-[3-(diethylphosphoryl)propoxy]-1-fluoro-3-hydroxynaphthalen-2-yl}-1λ^6,2,5-thiadiazolidine-1,1,3-trione] it is 1 to 10 nM. Take `O=C1CN(c2c(O)cc3ccc(OCCF)cc3c2F)S(=O)(=O)N1` [Compound 198, 5-[1-fluoro-7-(2-fluoroethoxy)-3-hydroxynaphthalen-2-yl]-1λ^6,2,5-thiadiazolidine-1,1,3-trione]: the IC50 was 10 to 100 nM. With `O=C1CN(c2c(O)cc3ccc(NCCNS(=O)(=O)C4CC4)cc3c2F)S(=O)(=O)N1` [Compound 125, N-(2-{[8-fluoro-6-hydroxy-7-(1,1,4-trioxo-1λ^6,2,5-thiadiazolidin-2-yl)naphthalen-2-yl]amino}ethyl)cyclopropanesulfonamide], the IC50 was 10 to 100 nM.

Regarding `CC1(CCOc2ccc3cc(O)c(N4CC(=O)NS4(=O)=O)c(F)c3c2)CC1` [Compound 193, 5-{1-fluoro-3-hydroxy-7-[2-(1-methylcyclopropyl)ethoxy]naphthalen-2-yl}-1λ^6,2,5-thiadiazolidine-1,1,3-trione], the half-inhibitory concentration (IC50) is 10 to 100 nM. `N#CCOc1ccc2cc(O)c(N3CC(=O)NS3(=O)=O)c(F)c2c1` [Compound 203, {[8-fluoro-6-hydroxy-7-(1,1,4-trioxo-1λ^6,2,5-thiadiazolidin-2-yl)naphthalen-2-yl]oxy}acetonitrile]: the IC50 is over 100 nM. Under `CCOCCCOc1ccc2cc(O)c(N3CC(=O)NS3(=O)=O)c(F)c2c1` [Compound 216, 5-[7-(3-ethoxypropoxy)-1-fluoro-3-hydroxynaphthalen-2-yl]-1λ^6,2,5-thiadiazolidine-1,1,3-trione] stands 1 to 10 nM. Under `CCOCCOc1ccc2cc(O)c(N3CC(=O)NS3(=O)=O)c(F)c2c1` [Compound 246, 5-[7-(2-ethoxyethoxy)-1-fluoro-3-hydroxynaphthalen-2-yl]-1λ^6,2,5-thiadiazolidine-1,1,3-trione] stands over 100 nM; under `O=C1CN(c2c(O)cc3ccc(C4=CCN(S(=O)(=O)CCCC(F)(F)F)C4)cc3c2F)S(=O)(=O)N1` [Compound 290, 5-{1-fluoro-3-hydroxy-7-[1-(4,4,4-trifluorobutane-1-sulfonyl)-2,5-dihydro-1H-pyrrol-3-yl]naphthalen-2-yl}-1λ^6,2,5-thiadiazolidine-1,1,3-trione], under 1 nM; under `COc1ccc(-c2ccc3cc(O)c(N4CC(=O)NS4(=O)=O)c(F)c3c2)s1` [Compound 227, 5-[1-fluoro-3-hydroxy-7-(5-methoxythiophen-2-yl)naphthalen-2-yl]-1λ^6,2,5-thiadiazolidine-1,1,3-trione], over 100 nM. In the case of `O=C1CN(c2c(O)cc3ccc(C4=CCN(S(=O)(=O)CCC(F)(F)F)C4)cc3c2F)S(=O)(=O)N1` [Compound 287, 5-{1-fluoro-3-hydroxy-7-[1-(3,3,3-trifluoropropane-1-sulfonyl)-2,5-dihydro-1H-pyrrol-3-yl]naphthalen-2-yl}-1λ^6,2,5-thiadiazolidine-1,1,3-trione], the IC50 is 1 to 10 nM.

As for `O=C1CN(c2c(O)cc3ccc(OCCN4CCOCC4)cc3c2F)S(=O)(=O)N1` [Compound 100, 5-{1-fluoro-3-hydroxy-7-[2-(morpholin-4-yl)ethoxy]naphthalen-2-yl}-1λ^6,2,5-thiadiazolidine-1,1,3-trione], the IC50 is 10 to 100 nM.

For the compound `O=C1CN(c2c(O)cc3ccc(OCCN4CCCCC4)cc3c2F)S(=O)(=O)N1` [Compound 112, 5-{1-fluoro-3-hydroxy-7-[2-(piperidin-1-yl)ethoxy]naphthalen-2-yl}-1λ^6,2,5-thiadiazolidine-1,1,3-trione], the IC50 lay within 10 to 100 nM. Under `O=C1CN(c2c(O)cc3ccc(OCCNCCOC(F)(F)F)cc3c2F)S(=O)(=O)N1` [Compound 137, 5-[1-fluoro-3-hydroxy-7-(2-{[2-(trifluoromethoxy)ethyl]amino}ethoxy)naphthalen-2-yl]-1λ^6,2,5-thiadiazolidine-1,1,3-trione] stands 1 to 10 nM; under `O=C1CN(c2c(O)cc3ccc(CCO)cc3c2F)S(=O)(=O)N1` [Compound 175, 5-[1-fluoro-3-hydroxy-7-(2-hydroxyethyl)naphthalen-2-yl]-1λ^6,2,5-thiadiazolidine-1,1,3-trione], 10 to 100 nM; under `O=C1CN(c2c(O)cc3ccc(-c4cnn(S(=O)(=O)C5CC5)c4)cc3c2F)S(=O)(=O)N1` [Compound 303, 5-{7-[1-(cyclopropanesulfonyl)-1H-pyrazol-4-yl]-1-fluoro-3-hydroxynaphthalen-2-yl}-1λ^6,2,5-thiadiazolidine-1,1,3-trione], 1 to 10 nM. As to `O=C(CNc1ccc2cc(O)c(N3CC(=O)NS3(=O)=O)c(F)c2c1)NCCC1CC1` [Compound 268, N-(2-cyclopropylethyl)-2-{[8-fluoro-6-hydroxy-7-(1,1,4-trioxo-1λ^6,2,5-thiadiazolidin-2-yl)naphthalen-2-yl]amino}acetamide], the IC50 lay within 10 to 100 nM.

Turning to `CC(C)CCCc1ccc2cc(O)c(N3CC(=O)NS3(=O)=O)c(F)c2c1` [Compound 219, 5-[1-fluoro-3-hydroxy-7-(4-methylpentyl)naphthalen-2-yl]-1λ^6,2,5-thiadiazolidine-1,1,3-trione], the IC50 lay within 10 to 100 nM.

Values taken from patent US20230019236A1, “PROTEIN TYROSINE PHOSPHATASE INHIBITORS AND METHODS OF USE THEREOF” (Calico Life Sciences LLC, priority 2019, published 2023).
